“Also recorded” adds a separate entry of the source.
Legend:
[1] = molecular target: T1, lactoferrin (Homo sapiens, UniProt P02788); assay: Heparin-BSA binding assay (positive control protein); conditions: data not shown
T1 construct: purchased
Procedure: (§1) Recombinant merozoite antigens were coated (1 μg/mL) onto 96 well plates (Nunc Maxisorb) in HT-PBS overnight at 4° C. Plates were washed and blocked with 1% casein, 1 hr, room temperature. Plates were incubated with heparin-BSA conjugate with soluble inhibitors and detected with anti-BSA (rabbit) (Sigma-Aldrich) antibodies and anti-rabbit -HRP. Detection was performed with 2,2′-azino-bis(3-ethylbenzthiazoline-6-sulphonic acid) (Sigma-Aldrich) monitored for colour change and measured for absorbance at 405 nm. All incubations were performed in HT-PBS 0.1% casein 0:05% Tween20, 1 hr at room temperature. Plates were washed 3 times HT-PBS 0.05% Tween20 between incubations.

[2] = tested on: P. falciparum merozoite invasion of erythrocytes; assay: Live video microscopy of merozoite invasion; type: cell-based, Plasmodium falciparum; conditions: 100 μg/mL; 4529 seconds filming, 15 rupture events
Procedure: Parasites cultures of 5-10% late stage schizonts were filmed with video microscopy in normal culture media, 37° C. 6% CO2 with humidification with or without 100 μg/mL of inhibitory compounds added to cultures as described previously. 35. Gilson P R, Crabb B S (2009) Morphology and kinetics of the three distinct phases of red blood cell invasion by Plasmodium falciparum merozoites. Int J Parasitol 39: 91-96.
A mechanism of action of heparin was next determined using live time-lapse microscopy. In control parasite cultures, schizont rupture and step-wise invasion of erythrocytes by merozoites was readily observed (FIG. 7C). During merozoite invasion of erythrocytes, Applicant observed initial contact with erythrocyte surface resulting in brief deformation of erythrocytes, merozoite reorientation, mechanical invasion resulting in erythrocyte deformation, and erythrocyte re-shaping upon complete invasion, as reported previously. […] Initial contact of merozoites with the erythrocyte surface was also observed; however, contact between erythrocytes and merozoites was not sustained, and merozoites dissociated after various lengths of time (FIG. 7D). No successful invasion events were observed; additionally, reorientation of merozoites and deformation of erythrocytes were not clearly seen, although the observation of merozoite reorientation is limited due to microscope resolution. […]

[3] = tested on: P. falciparum blood stage growth; assay: Growth inhibition assay (GIA), flow cytometry; type: cell-based, Plasmodium falciparum; conditions: for inhibition of different P. falciparum lines: 3D7, W2mef, D10, E8B, XIE, HCS3, SA-dependent and SA-independent invasion
Procedure: P. falciparum was cultured as described. Parasites were maintained in culture media of RPMI-HEPES supplemented with 5% (vol/vol) heat inactivated (56° C. 1 hr) human serum (Australian Red Cross Blood Bank),. […] (Gibco), 10mM L-glutamine (Gibco) and 25 mM […]. Parasites were grown at 37° C., 2% hematocrit, O+ human erythrocytes (Australian Red Cross Blood Bank), 1% O2 4% CO2 95% N2 atmosphere. Sorbitol (Sigma-Aldrich) was used to synchronize cultures. 32. Persson K E, Lee C T, Marsh K, Beeson J G (2006) Development and optimization of high-throughput methods to measure Plasmodium falciparum-specific growth inhibitory antibodies. J Clin Microbiol 44: 1665-1673.33. Lambros C, Vanderberg J P (1979) Synchronization of Plasmodium falciparum erythrocytic stages in culture. J Parasitol 65: 418-420.
Heparin and K5 polysaccharides (Table 1) were tested for inhibitory activity against P. falciparum parasites using high throughput growth inhibitory assays (GlAs). Duplicate 25 μl suspensions of synchronized parasites, 2% parasitemia (32 hr trophozoite), 1% hematocrit with normal or enzymatically treated erythrocyctes, were incubated with inhibitory compounds in 96 well sterile U-bottom plates (Falcon). For humidification, outside wells were filled with sterile human tonicity phosphate-buffered saline (HT-PBS). Plates were incubated as for parasite culture for 44 hrs and analyzed. Parasites were stained with 10 μg/mL ethidium bromide (EtBr) (BioRad), HT-PBS, 1 hr in darkness. Cells were washed and re-suspended in 200 μL HT-PBS. Parasitemia was measured using FACSCalibur flow-cytometry. Data were analyzed using FlowJo (Tree Star), gating on intact erythrocytes and determining parasitemia by EtBr staining. Inhibitory effects of compounds were expressed as percent growth of uninhibited controls (HT-PBS) for each experiment.
Erythrocytes were treated with neuraminidase, chymotrypsin and trypsin as described previously. Erythrocytes were washed with RPMI-HEPES and incubated with neuraminidase ([…], 15 minutes), chymotrypsin (1 mg/mL, 45 minutes) or trypsin (100 μg/mL, […]) at 37° C. Neuraminidase treated bells were washed three times with RPMI-HEPES and chymotrypsin and trypsin treated cells were washed once with culture media and twice with RPMI-HEPES and then used in GIAs. 34. Persson K E, McCallum F J, Reiling L, Lister N A, Stubbs J, et al. (2008) Variation in use of erythrocyte invasion pathways by Plasmodium falciparum mediates evasion of human inhibitory antibodies. J Clin Invest 118: 342-351.

[4] = tested on: purified P. falciparum merozoites invading RBCs; assay: Invasion inhibition assay (IIA) using purified merozoites; type: cell-based, Plasmodium falciparum
Procedure: Purified merozoites were mixed with uninfected RBCs and cultured using standard conditions in 96 well U-bottom plates at a final volume of 50 μl or 100 μl per well. Specific assay conditions were varied for different test conditions, as described in the Results section of the manuscript. Assays were typically performed under static conditions. Some assays were also performed with agitation of merozoite:RBC suspensions.
To test the activity of inhibitory compounds on invasion (Supporting Information Table 3), E64 treated schizonts were resuspended and filtered in culture medium without human serum. A typical merozoite invasion inhibition assay consisted of filtered merozoites (40 ul) added to RBC suspension (5 ul at […]; final concentration 1% hematocrit) and inhibitory compounds (5 ul at 10-times the final concentration required) in 96-well plates. Merozoite:RBCs suspensions containing inhibitors were incubated for one hour and then washed twice with culture medium to remove inhibitors, then resuspended in fresh culture media and incubated and analysed as for standard merozoite invasion assays. A number of compounds were also tested for inhibition of schizont rupture by incubating late stage schizonts (1-2% parasitaemia, 1% haematocrit in 50 ul) with a 1 in 10 dilution of compounds and monitoring the course of schizont rupture at 3 time points over an 8 hour period by flow cytometry.

[5] = molecular target: MSP1-42 (Plasmodium falciparum, UniProt Q8I0U8); assay: Heparin-BSA binding assay; design: a C-terminal 42kDa (MSP1-42) fragment; made in house; host or cells: E. coli; species or system P. falciparum; conditions: soluble inhibitor
MSP1-42, sequence (Q8I0U8 1327-1699): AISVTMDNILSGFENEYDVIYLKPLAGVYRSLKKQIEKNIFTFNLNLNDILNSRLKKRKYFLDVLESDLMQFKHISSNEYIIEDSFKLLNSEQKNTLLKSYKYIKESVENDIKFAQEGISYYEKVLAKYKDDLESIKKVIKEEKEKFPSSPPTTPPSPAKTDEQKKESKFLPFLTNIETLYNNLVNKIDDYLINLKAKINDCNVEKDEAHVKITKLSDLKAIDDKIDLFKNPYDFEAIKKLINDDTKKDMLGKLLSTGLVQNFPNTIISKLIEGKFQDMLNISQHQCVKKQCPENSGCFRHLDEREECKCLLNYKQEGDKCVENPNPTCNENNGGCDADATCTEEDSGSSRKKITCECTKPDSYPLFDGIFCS
Procedure: as §1

T1 sequence (P02788 20-710, species assumed): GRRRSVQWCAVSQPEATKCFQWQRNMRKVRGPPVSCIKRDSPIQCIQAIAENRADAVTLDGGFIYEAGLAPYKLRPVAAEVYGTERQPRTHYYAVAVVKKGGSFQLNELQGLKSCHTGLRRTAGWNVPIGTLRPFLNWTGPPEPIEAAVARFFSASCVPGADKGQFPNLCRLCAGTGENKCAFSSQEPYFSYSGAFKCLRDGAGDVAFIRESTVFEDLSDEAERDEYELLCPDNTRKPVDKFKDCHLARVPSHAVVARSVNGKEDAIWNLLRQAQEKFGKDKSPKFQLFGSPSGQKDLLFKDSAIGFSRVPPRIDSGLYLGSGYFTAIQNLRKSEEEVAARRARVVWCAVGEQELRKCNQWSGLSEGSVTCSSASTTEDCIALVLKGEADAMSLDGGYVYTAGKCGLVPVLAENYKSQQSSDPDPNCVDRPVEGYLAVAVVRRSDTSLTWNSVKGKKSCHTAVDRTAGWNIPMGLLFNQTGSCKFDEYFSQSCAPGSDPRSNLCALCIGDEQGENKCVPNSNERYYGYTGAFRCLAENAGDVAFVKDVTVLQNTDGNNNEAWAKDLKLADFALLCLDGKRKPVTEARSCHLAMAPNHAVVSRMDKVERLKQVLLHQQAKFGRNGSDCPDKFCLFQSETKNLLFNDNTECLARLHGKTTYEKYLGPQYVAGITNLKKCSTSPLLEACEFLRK

Substance: Heparin
- inhibition of lactoferrin binding to heparin-BSA [1]: inhibited
- successful invasion events observed [2]: no successful invasion observed
- inhibition of different P. falciparum lines [3]: inhibited to similar levels
- inhibition of different P. falciparum lines ([3]; listed as Heparin): inhibited all parasite lines tested; also recorded: inhibited at equal levels
- inhibition of invasion into enzyme-treated versus control erythrocytes ([3]; 3D7, neuraminidase, trypsin, chymotrypsin treated erythrocytes): equivalent
- IC50, inhibition of P. falciparum blood stage growth in GIA ([3]; 3D7 parasite line, one cycle of parasite growth): 19 µg/mL
- selection of heparin-resistant parasites ([3]; 3D7 selected once or twice with heparin 100 μg/mL for 48 hrs): no evidence that Applicant were able to select for increased resistance
- IC50 of heparin in combination with AMA1-binding peptide ([3]; AMA1-binding peptide at 6.25 μg/mL): ~3 µg/mL
- parasite growth over one cycle of replication ([3]; heparin 100 μg/mL): a very low level of parasite growth
- combination with pyrimethamine ([3]; heparin with increasing pyrimethamine): acted in an additive manner
- inhibition of merozoite invasion in IIA [4]: effectively inhibited merozoite invasion
- inhibition of heparin-BSA binding to recombinant MSP1-42 [5]: inhibited in a concentration-dependent manner
